Laboratory results: US4865840A, “Topical compositions containing selenoamino acids for the prevention of ultraviolet radiation-induced skin damage” (priority 1987, dated 1989)

How the values were obtained:
[1] = tested on: UV irradiated BALB-C mice (skin cancers); assay: clinically detectable skin tumors and mortality in UV irradiated and unirradiated BALB-C mice; format: in vivo, BALB-C female mice
Text: (§1) To determine the effectiveness of selenium supplementation in the form of topical application and oral administration of L-selenomethionine in providing protection for ultraviolet radiation-induced skin damage, 120 BALB-C female mice and 40 female Skh:2 hairless, pigmented, dark-eyed mice were obtained and separated into treatment groups as follows:
(§2) During the treatment, the BALB-C mice were shaved on the back one per week. 100 λ of a composition according to the invention in the form of an oil-in-water emulsion location containing 0.02% L-selenomethionine was applied three times a week to the backs and ears of the mice for a period of one week prior to beginning irradiation with ultraviolet light. The lotion carrier was formulated from an oil phase containing 21/2% polypropylene glycol-3-myristyl ether, 2% squalane, 0.5% safflower oil, 1% Myrj 52S emulsifier, 0.75% cetyl alcohol, 0.3% SPAN-60, 6.5% Amercol L101, 0.5% Lanocerin, 1% glyceral monostearate, 0.1% preservative, 1% Silicone 200, 1% stearic acid, and 0.5% isostearic acid; and an aqueous phase containing 68.5% distilled water, 0.75% triethanolamine, 5% propylene glycol, 0.3% preservative, 0.1% allantoin, 0.4% Germal II dissolved in 2% water, and 5% of Carbopol 941 (2.5% solution). Each 100 λ application of the composition penetrated the skin within a period of ten minutes. The composition continued to be applied thirty minutes before each thrice weekly irradiation.
(§3) Maintenance exposure times for the BALB-C mice was 50 minutes, while for the Skh:2 mice it was 15 minutes. Irradiation with four Westinghouse FS40 sunlamps was begun at 5 minute exposures, however, and increased by 5 minutes per session for the BALB-C mice and by 2.5 minutes per session for the Skh:2 mice until the respective maintenance exposure level for each type of mouse was reached. The maintenance dose of UV radiation for the BALB-C mice was 0.58 Joules/sq. cm./exposure and for the Skh:2 mice, 0.24 Joules/s. cm./exposure. This irradiation was continued for 28 weeks for the BALB-C mice (about 41 joules/sq. cm. total) and 24 weeks for the Skh:2 mice (about 15 joules/sq. cm. total).
(§4) To evaluate the effectiveness of the selenium supplementation in protecting against skin cancers and the relative merits of the claimed composition, the total number of clinically detectable skin cancers in each group was counted.
Tumors greater than 5 mm in size were also considered, but the observed results were inconclusive due to the complicating effect of mortality in irradiated/non-selenium supplemented mice.

[2] = tested on: UV irradiated Skh:2 mice (skin cancers); assay: clinically detectable skin tumors in UV irradiated Skh:2 mice; format: in vivo, female Skh:2 hairless, pigmented mice
Text: as §1
During the treatment, the BALB-C mice were shaved on the back one per week. 100 λ of a composition according to the invention in the form of an oil-in-water emulsion location containing 0.02% L-selenomethionine was applied three times a week to the backs and ears of the mice for a period of one week prior to beginning irradiation with ultraviolet light. […]
as §4

[3] = design: species or system BALBC mice; conditions: mouse, in vivo, po
Text: as §1
as §2, with “Each 100 λ application of the composition penetrated the skin within a period of ten minutes. The composition continued to be applied thirty minutes before each thrice weekly irradiation.” left out
(§5) Throughout the studies, the weights of the mice and the total feed and water intake were monitored.

[4] = design: species or system KH2 (Skh:2) mice; conditions: mouse, in vivo
Text: as §1
as §2, with “Each 100 λ application of the composition penetrated the skin within a period of ten minutes. The composition continued to be applied thirty minutes before each thrice weekly irradiation.” left out
as §5

[5] = tissue Se in BALBC mice after 3 months; conditions: mouse, in vivo; for concentration at 2190 h: tissue Se
Text: as §1, §2, §3
(§6) After 12 weeks, 6 irradiated and 4 non-irradiated BALB-C mice were sacrificed, and at 39 weeks the remaining BALB-C mice were sacrificed. The liver and skin selenium levels were determined.

in vivo = assay: in vivo; design: species or system BALBc mice; conditions: mouse; for Liver Se / Ventral skin Se / dorsal skin Se: 6552 h
Text: as §1, §2, §3, §6

[6] = tested on: selenium dependent glutathione peroxidase; assay: hepatic activity of Se-dependent glutathione peroxidase (SeGSHpx); format: in vivo, BALBC mice; conditions: for liver SeGSHpx: 3 months, mean ± SEM; for SeGSHpx: hepatic, 39 weeks
Text: as §1, §2, §3
(§7) Since selenium is a co-factor for a free-radical quenching enzyme, glutathione peroxidase, the level of two hepatic free-radical quenching enzymes, selenium dependent glutathione peroxidase and superoxide dismutase were also tested.

superoxide dismutase = assay: hepatic activity of superoxide dismutase (SOD); format: in vivo, BALBc mice; conditions: 39 weeks, pH 10.2
Experimental: as §7
^1 SOD was measured by the inihibition of the spontaneous oxidation o
epinephrine at pH 10.2; 1 EU = 50% inhibition.

[7] = tested on: pigmentation of Skh:2 mice; assay: Pigmentation of Skh:2 mice after exposure to UV-irradiation; format: in vivo; conditions: for Pigmentation score: +4 = dark pigmentation, 0 = no pigmentation
Text: as §1, §2, §3
(§8) This is illustrated in Table 6, where the pigmentation of selenium supplemented mice is reduced.

[8] = absorption into treated human skin; format: in vivo; conditions: topical
Text: Topical application of selenoamino acid compositions in accordance with the invention provides a different type of protection than that afforded by conventional sunscreens, such as those containing p-amino benzoic acid, because the selenium is actually absorbed into treated human skin within a period of less than fifteen minutes. Thus, unlike a superficial sunscreen, the protective effect of the selenomethionine is not washed off by, e.g., swimming or sweating. Thus, frequent reapplication is not required to maintain protection, as is the case with known sunscreen products.

[9] = format: in vivo; conditions: 100 λ of 0.02% L-selenomethionine oil-in-water lotion, mice
Text: as §2

[10] = toxicity in selenium treated mice (hepatic enzymes, alkaline phosphatase); format: in vivo
[11] = tested on: ultraviolet radiation-induced skin damage; assay: protection from UV radiation-induced skin damage (inflammation, i.e. sunburn; skin cancers); format: in vivo
Text: as §8

[12] = in vivo
[13] = selenium levels in skin, plasma/serum and liver after topical application (general statement)
[14] = topical; cited from earlier work
[15] = tested on: UV-induced skin cancer in hairless mice; conditions: oral, cited from earlier work
[16] = unirradiated BALB-C, groups 4-6

Structure (SMILES): C[Se]CC[C@H](N)C(=O)O [L-selenomethionine]
- UV-induced mortality ([1]; irradiated BALB-C, groups 1-3, FIG. 3): clear reduction in UV-induced mortality
- protection against skin cancers (tumors over 3 mm; animals with tumors) ([1]; irradiated BALB-C, topical and oral, FIGS. 1, 2): comparable protection against skin cancers
- tumors greater than 5 mm ([1]; irradiated BALB-C, complicated by mortality of non-supplemented mice): inconclusive
- deaths during the test period [1, 16]: none died
- tumors observed during the experimental period [1, 16]: no tumors observed
- protection against skin cancers (tumors over 3 mm; animals with tumors) ([2]; irradiated Skh:2, topical and oral, FIGS. 4, 5): comparable protection against skin cancers
- observations based upon 5 mm tumors ([2]; irradiated Skh:2, control mortality a complicating factor): superior in the selenium-supplemented mice
- effect on feeding habits [3]: little effect on the feeding habits of the mice
- Feed Intake [4]: 496.5 ± 31.1 g/mouse
- Water Intake [4]: 594.6 ± 43.0 g/mouse
- selenium levels in the localized part of the skin treated [5]: preferential increase in selenium levels in the localized part of the skin actually treated
- selenium levels in the treated skin [5]: substantially enhanced selenium levels in the treated skin
- tissue Se, dorsal skin ([5]; po, 2190 h): .578 ± .061 g/g
- tissue Se, ventral skin ([5]; po, 2190 h): .666 ± .046 g/g
- concentration at 2190 h ([5]; po, dorsal skin): 913 ± 74 ng/g
- concentration at 2190 h ([5]; po, liver): 1600 ± 186 ng/g
- concentration at 2190 h ([5]; po, ventral skin): 728 ± 28 ng/g
- concentration at 2190 h ([5]; topical or ocular, dorsal skin): 4520 ± 568 ng/g
- concentration at 2190 h ([5]; topical or ocular, liver): 2240 ± 353 ng/g
- concentration at 2190 h ([5]; topical or ocular, ventral skin): 1860 ± 193 ng/g
- Liver Se (in vivo; po): 1.674 ± .137 ppm
- Ventral skin Se (in vivo; po): .521 ± .018 ppm
- dorsal skin Se (in vivo; po): .432 ± .023 ppm
- concentration at 6552 h (in vivo; po, Liver Se): 1560 ± 84 ng/g
- concentration at 6552 h (in vivo; po, Ventral skin Se): 508 ± 26 ng/g
- concentration at 6552 h (in vivo; po, dorsal skin Se): 562 ± 40 ng/g
- Liver Se (in vivo; topical or ocular): 1.481 ± .156 ppm
- Ventral skin Se (in vivo; topical or ocular): .777 ± .069 ppm
- dorsal skin Se (in vivo; topical or ocular): 2.255 ± .582 ppm
- concentration at 6552 h (in vivo; topical or ocular, Liver Se): 1420 ± 150 ng/g
- concentration at 6552 h (in vivo; topical or ocular, Ventral skin Se): 843 ± 76 ng/g
- concentration at 6552 h (in vivo; topical or ocular, dorsal skin Se): 2010 ± 190 ng/g
- liver SeGSHpx ([6]; UV +, drinking water, n = 6): 125.69 ± 14.59 nmoles NADPH/min/mg
- liver SeGSHpx ([6]; UV +, topical, n = 6): 124.15 ± 10.51 nmoles NADPH/min/mg
- liver SeGSHpx ([6]; UV -, drinking water, n = 4): 141.49 ± 18.71 nmoles NADPH/min/mg
- liver SeGSHpx ([6]; UV -, topical, n = 4): 160.18 ± 17.36 nmoles NADPH/min/mg
- SeGSHpx ([6]; UV +, d.water, n = 20): 114.91 ± 12.20 nmoles NADPH/mg-min
- SeGSHpx ([6]; UV +, topical, n = 13): 85.97 ± 9.92 nmoles NADPH/mg-min
- SeGSHpx ([6]; UV -, d.water, n = 4): 57.98 ± 10.82 nmoles NADPH/mg-min
- SeGSHpx ([6]; UV -, topical, n = 4): 83.30 ± 20.83 nmoles NADPH/mg-min
- SOD (superoxide dismutase; UV +, d.water, n = 20, 1 EU = 50% inhibition of epinephrine oxidation): 243 ± 67 EU/g
- SOD (superoxide dismutase; UV +, topical, n = 13, 1 EU = 50% inhibition of epinephrine oxidation): 181 ± 51 EU/g
- SOD (superoxide dismutase; UV -, d.water, n = 4, 1 EU = 50% inhibition of epinephrine oxidation): 109 ± 43 EU/g
- SOD (superoxide dismutase; UV -, topical, n = 4, 1 EU = 50% inhibition of epinephrine oxidation): 88 ± 34 EU/g
- Pigmentation score ([7]; oral, week 7, no selenium 3.3): 1.7
- Pigmentation score ([7]; oral, week 12, no selenium 3.5): 2.5
- Pigmentation score ([7]; oral, week 16, no selenium 3.6): 2.6
- pigmentation ([7]; selenium supplemented mice, Table 6): reduced
- Pigmentation score ([7]; topical, week 7, no selenium 3.3): 2.3
- Pigmentation score ([7]; topical, week 12, no selenium 3.5): 2.7
- Pigmentation score ([7]; topical, week 16, no selenium 3.6): 2.6
- time in which selenium is absorbed into treated human skin [8]: less than fifteen
- time in which the composition penetrated the skin [9]: ten
- toxicity [10]: no evidence of toxicity
- protection against less severe UV radiation-induced damage (inflammation i.e. sunburn and pigmentation) ([11]; topical): observed to protect the skin against less severe types of ultraviolet radiation-induced damage such as inflammation i.e. sunburn and pigmentation
- incidence of skin cancers following exposure to ultraviolet radiation ([11]; topical application): significantly reduce the incidence of skin cancers
- selenium concentration in the skin in the area of application [12]: higher than that attained using a comparable oral dosage of selenium
- selenium levels in the plasma and liver [12]: enhanced levels of selenium in the plasma and liver
- selenium levels in the skin [12]: significantly enhanced levels of selenium in the skin
- selenium levels in untreated skin, serum and liver [12]: comparable to those in animal receiving oral doses of selenium
- toxicity [13]: without toxicity

Structure (SMILES): S=[Se]=S [Selenium sulfide, selenium sulfide]
- skin penetration / selenium levels in the serum or liver [14]: does not penetrate the skin to give increased levels of selenium in the serum or liver

Structure (SMILES): O=[Se](O)O [sodium selenite]
- animal growth rate ([15]; decreased weight gain relative to controls): moderate inhibition of animal growth rate
- protection against UV-induced skin cancer [15]: dose-dependent selenium protection against UV-induced skin cancer
- resistance to acute and sub-acute effects of UV radiation (inflammation and pigmentation) [15]: more resistant to the acute and sub-acute effects of UV radiation
